The values below come from patent US20070036874A1, “Compositions and methods for controlling glucose and lipid uptake from foods” (priority 2005, published 2007).

Molecules are shown by their SMILES.

In experiment [1] the test system is sodium dependent glucose transporter. The note with it: in vitro study; cited from earlier work.
The target in a further experiment is T1, human pancreatic lipase (Homo sapiens, UniProt P16233).
T1 sequence (P16233 17-465): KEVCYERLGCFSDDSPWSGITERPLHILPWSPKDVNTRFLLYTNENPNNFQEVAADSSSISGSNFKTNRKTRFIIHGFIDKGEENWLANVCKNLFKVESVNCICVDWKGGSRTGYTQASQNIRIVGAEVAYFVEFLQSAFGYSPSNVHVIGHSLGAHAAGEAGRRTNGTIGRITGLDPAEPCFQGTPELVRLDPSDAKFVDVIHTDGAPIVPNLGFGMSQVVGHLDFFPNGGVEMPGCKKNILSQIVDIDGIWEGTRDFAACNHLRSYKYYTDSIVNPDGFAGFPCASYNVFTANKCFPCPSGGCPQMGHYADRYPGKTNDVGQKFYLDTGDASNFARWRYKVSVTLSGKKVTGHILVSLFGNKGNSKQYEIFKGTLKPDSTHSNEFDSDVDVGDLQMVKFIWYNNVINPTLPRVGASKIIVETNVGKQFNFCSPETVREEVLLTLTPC
Put plainly: lipase inhibition activity (USP units per mg). The class given is biochemical. The procedure:
Polymerized catechins are prepared from fermented catechins. Tea catechins are incubated with polyphenol oxidase in a reaction tank for 60 to 120 minutes. The mixture is then extracted with ethyl acetate and dried. In particular embodiments, the extracts have at least 10 USP units human pancreatic lipase inhibition per mg.
LIPOTAME™, an exemplary polymerized catechin commercially available from NatureGen, has 11.62 USP units/mg of lipase inhibition activity, compared to 80 USP units/mg of lipase inhibition activity found in ORLISTAT®.

On to `O=C(O[C@@H]1Cc2c(O)cc(O)cc2O[C@@H]1c1ccc(O)c(O)c1)c1cc(O)c(O)c(O)c1` [Epicatechin gallate], for which the “inhibition of the glucose uptake through incubated intestinal membranes” value in experiment [1] was “up to 50%”. In the case of `CCCCCCCCCCC[C@@H](C[C@@H]1OC(=O)[C@H]1CCCCCC)OC(=O)[C@H](CC(C)C)NC=O` [ORLISTAT®, Orlistat], the lipase inhibition activity on human pancreatic lipase is 80 USP units/mg.
